What all share (assay): NCI-60 cell line screen, 48 h
In assay [1] the test system is EKVX NSCLC.
In assay [2] the test system is KM20L2 colon.
The subject of assay [3] is MALME-3M melanoma.
Assay [4] has as its system NCI-H23 lung.
In assay [5] the test system is SF-268 CNS.
Assay [6] deals with SF-539 CNS.
Assay [7] has as its system SNB-78 CNS.
The subject of assay [8] is LXFL 529 NSCLC.
Assay [9] has as its system BT-549 breast.

Values joined by “and” are separate entries in the source; they are usually repeats but may differ in a detail not shown here. Equal entries are not always repeated.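 Method: 48-hour compound exposure of cells in 96-well plates, five concentrations, linear interpolation of endpoints. The concentration for 50% growth inhibition is given as GI50. At the TGI there is no net growth.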

Take `Clc1ccc([O][In]([O]c2ccc(Cl)cn2)[O]c2ccc(Cl)cn2)nc1`: the GI50 in assay [1], in assay [2], in assay [3], in assay [4], in assay [5] and in [6] was above 100 µM throughout. Also, the GI50 in [7] is above 100 µM. Also, the TGI in [1], in assay [2], in assay [3], in assay [4], in assay [5] and in assay [6] was above 100 µM each time. In addition, in assay [7], the TGI is above 100 µM.
As for `Cc1cc(C)c2c(c1)CN1CN2Cc2cc(C)cc(C)c21`, the TGI in [1] was 35.1 µM; in assay [8] it was above 100 µM; in assay [4], 55.4 µM; in assay [5], above 100 µM; in [7], 40.2 µM.
With `CC1(C)O[C@H]2OC3CCC(=O)CC3(O)[C@H]2O1` (stereo not given in full), the TGI in [9], in assay [1], in assay [3], in [4], in [5] and in [6] was above 100 µM in each case. The molecule also returned a TGI in assay [7] above 100 µM.
For `CC[O-].CC[O-].O=C1C(=C([O-])c2ccccc2)C(=O)c2ccccc21.O=C1C(=C([O-])c2ccccc2)C(=O)c2ccccc21.[Ti+4]`, the GI50 is 24.3 µM in [1]; above 100 µM in [2]; above 100 µM in assay [3]; 92.3 µM in assay [4]; above 10 µM in assay [5]; above 100 µM in assay [6]. Also, the GI50 in assay [7] is above 100 µM. Besides, the TGI in [1] is above 100 µM; in assay [2], above 100 µM; in assay [3] it was above 100 µM; in assay [4], above 100 µM; in assay [5], above 10 µM; in assay [6], above 100 µM. The same molecule came in with a TGI in [7] above 100 µM.
For `C/C(=N/N(C=O)C[n+]1ccccc1)C(CN(CC(C)C)CC(C)C)C(=O)Nc1ccc(C)cc1C` (stereo not given), the TGI in [1], in assay [2], in assay [3], in assay [4], in assay [5] and in assay [6] was above 100 µM in each case.
On to `CON(C)C(=O)C(C)NC(=O)OCc1ccccc1` (stereo not given), for which the TGI in assay [9], in assay [1], in [3], in assay [4], in assay [5] and in [6] was above 100 µM each time.
In the case of `C=C1C(=O)O[C@@H]2C[C@@]3(C)CC(=O)C=C(C)[C@@H]3C[C@H]12`, the TGI in [9] came to 27.6 µM; in assay [1], 28.8 µM; in assay [3] it was 21.7 µM; in [4] it was 29.9 µM; in assay [5] it was 42.5 µM; in assay [6], 36.2 µM.
Take `O=c1nc(-c2ccccc2)c2c3c(cccn13)CCC2`: the TGI in assay [8], in assay [3], in assay [4], in assay [5], in [6] and in assay [7] was above 100 µM throughout.
As for `C[n+]1cc2c3c(ccc2c2ccc4cc5c(cc4c21)OCO5)OCO3`, the GI50 is 0.784 µM in assay [9]; 1.33 µM in assay [1]; 0.564 µM in assay [3]; 0.72 µM in assay [4]; 0.489 µM in [5]; 1.42 µM in assay [6]. The TGI in assay [9] was found to be 2.08 µM; in assay [1] it was 2.65 µM; in assay [3], 1.83 µM; in [4] it was 2.18 µM; in assay [5], 1.7 µM; in assay [6], 3.02 µM.
On to `Clc1ccccc1NN(Cc1ccccn1)c1ccccc1Cl`, for which the TGI in [9] was 56 µM; in assay [1], 52.5 µM; in assay [3], 37.4 µM; in [4] it was 50.4 µM; in [5], 52.4 µM; in assay [6], 36.6 µM.
Regarding `COc1cc2cc(Oc3ccc(NC(=O)c4cccc(C(F)(F)F)c4)cc3)c(C)nc2cc1OC`, the GI50 in assay [9] was 3.31 µM; in assay [1], 4.39 µM; in [3], above 100 µM; in assay [4] it was 4.11 µM; in assay [5], above 100 µM; in [6], 8.35 µM. The TGI in [9], in assay [1], in assay [3], in assay [4], in assay [5] and in assay [6] was above 100 µM in each case.
Consider `CS(=O)(=O)c1ccc(Cl)c([N+](=O)[O-])c1`, for which the GI50 in [9] was 18.7 µM; in [1] it was 18.5 µM; in assay [3] it was 21 µM; in assay [4], 16.5 µM; in assay [5], 18.5 µM; in [6], 19.2 µM. For the same molecule, the TGI in [9] is 32.8 µM; in [1], 38.1 µM; in [3], 44.9 µM; in assay [4] it was 33.5 µM; in assay [5], 36.3 µM; in assay [6] it was 34.4 µM.
Regarding `COc1ccc2nc(-c3ccccc3)cc(Nc3cccc(/C(C)=N\O)c3)c2c1`, the GI50 in assay [9] was 32.8 µM; in [1] it was 19.2 µM; in assay [3], 4.29 µM; in assay [4] it was 22.4 µM; in [5] it was 3.34 µM; in assay [6], 6.61 µM. Moreover, the TGI is above 100 µM in assay [9]; 86.9 µM in [1]; 20.2 µM in [3]; above 100 µM in assay [4]; 9.06 µM in assay [5]; 24.8 µM in assay [6].
As for `Fc1cccc(COc2ccc(Nc3ncnc4sc(-c5ccco5)cc34)cc2Cl)c1`, the GI50 in assay [9], in assay [1], in [3], in [4], in assay [5] and in assay [6] was above 25 µM each time. The TGI in [9], in assay [1], in assay [3], in assay [4], in assay [5] and in assay [6] was above 25 µM throughout.
Take `N/C(=N\OC(=O)c1ccccc1)C(C(=O)NOC(=O)c1ccccc1)C1CCCCC1` (stereo not given): the GI50 in assay [9] is 3.98 µM; in assay [1] it was 6.1 µM; in assay [3], 10.1 µM; in assay [4], 9.28 µM; in assay [5] it was 2.39 µM; in assay [6], 7.22 µM. Also, the TGI in assay [9] was 15.1 µM; in assay [1], 20.9 µM; in assay [3], 27.5 µM; in assay [4], 24.1 µM; in assay [5] it was 6.7 µM; in assay [6] it was 20.1 µM.
Turning to `O=C(c1ccccc1)c1c(CC(O)c2cccnc2)n(C(=O)c2ccccc2)c2ccccc12` (stereo not given), the TGI in assay [2] stood at 42 µM; in assay [3], 43.3 µM; in assay [4] it was 36.5 µM; in assay [5], 59.4 µM; in [6], 30.6 µM.
For `O=C(O)c1cc[c]([Hg][S]c2ncnc3nc[nH]c23)cc1`, the GI50 in assay [9] was 8.12 µM; in assay [1], 19.2 µM; in assay [3], 3.35 µM; in assay [4] it was 15.5 µM; in [5], 5.15 µM; in assay [6], 7.39 µM. Also, the TGI in assay [9] came out at 21.6 µM; in assay [1], 34.9 µM; in assay [3], 17.9 µM; in [4] it was 34.8 µM; in assay [5], 19 µM; in assay [6], 25.6 µM.
Regarding `CN1CCCN(CCNc2nccc(-c3c(-c4cccc(O)c4)nc4sccn34)n2)S1(=O)=O`, the GI50 in assay [9] is 9.2 µM and 12.3 µM; in assay [1] it was 31.1 µM and 30.3 µM; in [3] it was 0.0583 µM; in assay [4] it was 11.1 µM and 14.4 µM; in [5], 17.7 µM; in assay [6], 18.7 µM and 22.2 µM. In addition, the TGI in assay [9] is 58.8 µM and > 78.4 µM; in assay [1] it was 75 µM and > 100 µM; in assay [3], 3.91 µM; in assay [4], 37.8 µM and 72.9 µM; in assay [5], above 100 µM; in assay [6], 75 µM and > 100 µM.
For the molecule `CC1(C)CCC(C)(C)c2cc(C(=O)Nc3ccc(C(=O)O)cc3)ccc21`, the TGI in [9] is 73 µM; in assay [1], above 100 µM; in assay [3] it was above 100 µM; in assay [4], 37.8 µM; in assay [5] it was above 87.4 µM; in assay [6] it was 30.3 µM.
`Cc1cc2c(C(C)C)c(O)c(O)c(C=Nc3cc(C(F)(F)F)ccc3Cl)c2c(O)c1-c1c(C)cc2c(C(C)C)c(O)c(O)c(C=Nc3cc(C(F)(F)F)ccc3Cl)c2c1O`: the TGI in [9] is 77.6 µM; in assay [1], above 100 µM; in assay [3], 95 µM; in assay [4], above 100 µM; in assay [5], above 100 µM; in assay [6] it was above 100 µM.
As for `COc1cc(/C=C2\CN(C)CC3=C2Nc2nc(SC)[nH]c(=O)c2C3c2cc(OC)c(OC)c(OC)c2)cc(OC)c1OC` (stereo not given), the GI50 in assay [9] was 2.98 µM; in assay [1], 8.44 µM; in assay [3] it was 2.82 µM; in assay [4] it was 3.54 µM; in [5], 1.66 µM; in assay [6], 3.64 µM. Further, the TGI in [9] was found to be 8.12 µM; in [1], 66.4 µM; in assay [3], 9.44 µM; in assay [4], 15.8 µM; in assay [5] it was 3.4 µM; in assay [6] it was 15.6 µM.
Turning to `Cc1cc([N+](=O)[O-])c(C)c2c1[nH]c1ccc(/C(CCC3CCCC3)=N\N)cc12`, the TGI in assay [1] was 32 µM; in [3], 32 µM; in [4], 32.7 µM; in assay [5], 37.5 µM; in assay [6] it was 34.8 µM; in assay [7] it was above 100 µM.
Take `COc1ccc(-c2cc(-c3ccc(Cl)cc3)c(C#N)c(=O)n2CCCCC(=O)Nc2ccccc2N)cc1`: the GI50 in [9] was 4.71 µM; in assay [1], 3.25 µM; in assay [3] it was 4.7 µM; in assay [4] it was 12.7 µM; in assay [5], 22.1 µM; in [6], 19.4 µM. Also, the TGI in [9] is 31.9 µM; in assay [1], 91.3 µM; in [3], 31.1 µM; in assay [4], 55.3 µM; in [5] it was above 100 µM; in assay [6] it was above 100 µM.
Take `COc1ccc(C(C2=C(C)C(=O)c3ccccc3C2=O)c2ccc(C(C)C)cc(=O)c2O)cc1` (stereo not given): the TGI was above 100 µM in assay [8]; above 100 µM in [3]; 23 µM in assay [5]; 5.8 µM in assay [6]; 35.1 µM in assay [7].
On to `CC(C)c1ccc2nc3ccc(C(=O)NCCN(C)C)cn3c(=O)c2c1`, for which the TGI in assay [9] stood at 29.6 µM; in assay [1], 34.7 µM; in assay [3], 23.1 µM; in [4], 33.9 µM; in assay [5], 36.3 µM; in [6] it was 29.2 µM.
`N=C(N)SCc1cn2ccccc2n1`: the TGI in assay [1], in [3], in [4], in assay [5], in assay [6] and in assay [7] was above 100 µM each time.
With `Nc1c(C(=O)Nc2ccc([As](=O)(O)O)cc2)cnc2nnnn12`, the TGI in assay [9], in [1], in assay [3], in assay [4], in [5] and in assay [6] was above 100 µM throughout.
For the molecule `CN1C2CC(C#N)C1C=CC2=O` (stereo not given), the GI50 in assay [9] was 38.7 µM and > 100 µM; in assay [1], 14.7 µM and 62.1 µM; in assay [3] it was 14.8 µM and 96.6 µM; in assay [4], 16.2 µM and 60.1 µM; in assay [5], 27.2 µM and > 100 µM; in assay [6], 18.6 µM and > 100 µM. Moreover, the TGI was 75.1 µM and > 100 µM in assay [9]; 28 µM and > 100 µM in assay [1]; 31.4 µM and > 100 µM in assay [3]; 48.6 µM and > 100 µM in [4]; above 100 µM in [5]; 43.2 µM and > 100 µM in [6].
For `Cc1ccc(C(=O)/C(=C/c2ccc([N+](=O)[O-])cc2)S(=O)Cc2ccccc2)cc1` (stereo not given), the GI50 was 1.79 µM in assay [9]; 1.6 µM in assay [1]; 1.69 µM in [3]; 1.86 µM in assay [4]; 1.71 µM in assay [5]; 1.69 µM in assay [6]. For the same molecule, the TGI in assay [9] turned out to be 3.49 µM; in assay [1], 3.13 µM; in [3], 3.54 µM; in assay [4], 5.25 µM; in [5] it was 3.72 µM; in assay [6], 3.1 µM.

The record behind these values is PubChem BioAssay (NCI).
